Source: patent US20060069132A1, “Azolecarboxamide herbicides” (priority 2004, published 2006)

What was measured:
velvetleaf [1] = assay: Test A pre-/postemergence herbicide test; assay type: in vivo, Abutilon theophrasti
Procedure, shortened: (§1)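 Pre: seeded sandy loam, directed soil spray, compound in non-phytotoxic solvent + surfactant. Post: 1–2-leaf plants (2–10 cm), sprayed to runoff. Greenhouse ~10 d; visual injury vs untreated, 0–100 scale.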

large crabgrass [2] = assay: Test A pre-/postemergence herbicide test; assay type: in vivo, Digitaria sanguinalis
Procedure, shortened: as §1

Surinam grass = assay: Test B pre-/postemergence herbicide test; assay type: in vivo, Urochloa decumbens; details: for Plant response rating, Surinam Grass: preemergence; for Surinam Grass plant response rating: postemergence, visual rating, scale 0 (no effect) to 100 (complete control)
Procedure, shortened: (§2)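 Formulation: non-phytotoxic solvent mix with surfactant. Timing: preemergence on seed and postemergence on 2–18 cm plants, applied concurrently. Readout after 13–15 d greenhouse: visual 0–100 control rating against controls.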

redroot pigweed = assay: Test A pre-/postemergence herbicide test; assay type: in vivo, Amaranthus retroflexus
Procedure, shortened: as §1

giant foxtail [3] = assay: Test A pre-/postemergence herbicide test; assay type: in vivo, Setaria faberi
Procedure, shortened: as §1

barnyardgrass [4] = assay: Test B pre-/postemergence herbicide test; assay type: in vivo, Echinochloa crus-galli; details: for Plant response rating, Barnyardgrass: preemergence; for Barnyardgrass plant response rating: postemergence, visual rating, scale 0 (no effect) to 100 (complete control)
Procedure, shortened: (§3)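 Test chemicals in a non-phytotoxic solvent mixture with surfactant were applied preemergence to seeded species and postemergence to plants 2-18 cm tall (1- to 4-leaf stage); rice and barnyardgrass were also tested in a flooded paddy at the 2-leaf stage. Visual rating versus controls after 13-15 days in greenhouse, scale 0 (no effect) to 100 (complete control).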

rice [5] = assay: Test B pre-/postemergence herbicide test; assay type: in vivo, Oryza sativa; details: preemergence
Procedure, shortened: as §2

giant foxtail [6] = assay: Test B pre-/postemergence herbicide test; assay type: in vivo, Setaria faberi; details: for Plant response rating, Foxtail, Giant: preemergence; for Foxtail, Giant plant response rating: postemergence, visual rating, scale 0 (no effect) to 100 (complete control)
Procedure, shortened: as §2

barnyardgrass [7] = assay: Test B flooded paddy test; assay type: in vivo, Echinochloa crus-galli; details: 1000 g ai/ha, visual rating, scale 0 to 100 (0 no effect, 100 complete control), 13 to 15 days
Procedure, shortened: (§4)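 Paddy species grown to the 2-leaf stage under flooding; blackgrass sprayed postemergence at 2–18 cm (1- to 4-leaf stage). Plants kept in a greenhouse for 13 to 15 days, then visually rated against controls on 0 (no effect) to 100 (complete control).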

morningglory [8] = assay: Test A pre-/postemergence herbicide test; assay type: in vivo, Ipomoea spp.
Procedure, shortened: as §1

wheat = assay: Test B postemergence herbicide test; assay type: in vivo, Triticum aestivum; design: key to Wheat plant response rating: 0 = no effect, 100 = complete control; details: postemergence, 500 g ai/ha; visual rating, scale 0 (no effect) to 100 (complete control)
Procedure, shortened: (§5)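 Greenhouse test; postemergence application to plants at 1–4 leaves (2–18 cm); paddy species at 2 leaves; evaluated visually vs controls at 13–15 days; scale 0–100 (100 = complete control).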

velvetleaf [9] = assay: Test B pre-/postemergence herbicide test; assay type: in vivo, Abutilon theophrasti; details: for Plant response rating, Velvetleaf: preemergence; for Velvetleaf plant response rating: postemergence, visual rating, scale 0 (no effect) to 100 (complete control)
Procedure, shortened: as §2

blackgrass = assay: Test B postemergence herbicide test; assay type: in vivo, Alopecurus myosuroides; details: postemergence, visual rating, scale 0 (no effect) to 100 (complete control)
Procedure, shortened: as §4

ducksalad = assay: Test B flooded paddy test; assay type: in vivo, Heteranthera limosa; details: 1000 g ai/ha, visual rating, scale 0 to 100 (0 no effect, 100 complete control), 13 to 15 days
Procedure, shortened: as §4

barnyardgrass [10] = assay: Test A pre-/postemergence herbicide test; assay type: in vivo, Echinochloa crus-galli
Procedure, shortened: as §1

morningglory [11] = assay: Test B pre-/postemergence herbicide test; assay type: in vivo, Ipomoea coccinea; details: for Plant response rating, Morningglory: preemergence; for Morningglory plant response rating: postemergence, visual rating, scale 0 (no effect) to 100 (complete control)
Procedure, shortened: as §3

cocklebur = assay: Test B pre-/postemergence herbicide test; assay type: in vivo, Xanthium strumarium; details: for Plant response rating, Cocklebur: preemergence; for Cocklebur plant response rating: postemergence, visual rating, scale 0 (no effect) to 100 (complete control)
Procedure, shortened: as §3

corn = assay: Test B pre-/postemergence herbicide test; assay type: in vivo, Zea mays; details: for Plant response rating, Corn: preemergence; for Corn plant response rating: postemergence, visual rating, scale 0 (no effect) to 100 (complete control)
Procedure, shortened: as §2

[12] = tested on: small flower umbrella sedge; assay: Test B flooded paddy test; assay type: in vivo, Cyperus difformis; details: 1000 g ai/ha, visual rating, scale 0 to 100 (0 no effect, 100 complete control), 13 to 15 days
Procedure, shortened: as §4

rice [13] = assay: Test B flooded paddy test; assay type: in vivo, Oryza sativa; details: 1000 g ai/ha, visual rating, scale 0 to 100 (0 no effect, 100 complete control), 13 to 15 days
Procedure, shortened: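 Scale 0–100: zero equals no visible effect, 100 complete control, judged by eye relative to controls. Timing: 13 to 15 days in greenhouse post-treatment. Growth stage at spraying: two leaves (paddy) or one to four leaves, 2–18 cm (postemergence).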

large crabgrass [14] = assay: Test B pre-/postemergence herbicide test; assay type: in vivo, Digitaria sanguinalis; details: for Plant response rating, Crabgrass, Large: preemergence; for Crabgrass, Large plant response rating: postemergence, visual rating, scale 0 (no effect) to 100 (complete control)
Procedure, shortened: as §2

pigweed = assay: Test B pre-/postemergence herbicide test; assay type: in vivo, Amaranthus retroflexus; details: for Plant response rating, Pigweed: preemergence; for Pigweed plant response rating: postemergence, visual rating, scale 0 (no effect) to 100 (complete control)
Procedure, shortened: as §2

wild oat = assay: Test B postemergence herbicide test; assay type: in vivo, Avena fatua; details: postemergence, visual rating, scale 0 (no effect) to 100 (complete control)
Procedure, shortened: as §5

lambsquarters = assay: Test B pre-/postemergence herbicide test; assay type: in vivo, Chenopodium album; details: for Plant response rating, Lambsquarters: preemergence; for Lambsquarters plant response rating: postemergence, visual rating, scale 0 (no effect) to 100 (complete control)
Procedure, shortened: as §2

[15] = Postemergence, 500 g ai/ha, 0 to 100 scale, 0 no effect, 100 complete control
[16] = Postemergence, 2000 g ai/ha, 0 to 100 scale, 0 no effect, 100 complete control
[17] = Preemergence, 2000 g ai/ha, visual rating, 0 to 100 scale (0 no effect, 100 complete control)
[18] = preemergence, 500 g ai/ha, visual injury, 0 to 100 scale (0 no effect, 100 complete control)
[19] = Preemergence, 500 g ai/ha, visual rating, 0 to 100 scale (0 no effect, 100 complete control)
[20] = 500 g ai/ha, visual rating 0-100, 0 no effect, 100 complete control
[21] = 125 g ai/ha, 0 to 100 scale, 0 is no effect, 100 is complete control

CCn1nc(C(C)(C)C)cc1C(=O)Nc1nc(OC)cc(OC)n1 [Compound 166]
Velvetleaf plant response rating (velvetleaf [1]; [15]): 20
Plant response rating, Velvetleaf (velvetleaf [1]; [16]): 30
Velvetleaf plant response rating (velvetleaf [1]; [17]): 5
Velvetleaf plant response rating (velvetleaf [1]; [18]): 0
Crabgrass, Large plant response rating (large crabgrass [2]; [15]): 0
Plant response rating, Crabgrass, Large (large crabgrass [2]; [16]): 0
Crabgrass, Large plant response rating (large crabgrass [2]; [19]): 0
Crabgrass, Large plant response rating (large crabgrass [2]; [17]): 30
Plant response rating, Surinam Grass (Surinam grass; [20]): 0
Surinam Grass plant response rating (Surinam grass; 125 g ai/ha): 0
Surinam Grass plant response rating (Surinam grass; 500 g ai/ha): 0
Plant response rating, Surinam Grass (Surinam grass; [21]): 0
Pigweed plant response rating (redroot pigweed; [15]): 20
Plant response rating, Pigweed (redroot pigweed; [16]): 25
Pigweed plant response rating (redroot pigweed; [17]): 10
Pigweed plant response rating (redroot pigweed; [18]): 0
Foxtail, Giant plant response rating (giant foxtail [3]; [15]): 0
Plant response rating, Foxtail, Giant (giant foxtail [3]; [16]): 20
Foxtail, Giant plant response rating (giant foxtail [3]; [19]): 0
Foxtail, Giant plant response rating (giant foxtail [3]; [17]): 10
Plant response rating, Barnyardgrass (barnyardgrass [4]; [20]): 0
Barnyardgrass plant response rating (barnyardgrass [4]; 125 g ai/ha): 0
Barnyardgrass plant response rating (barnyardgrass [4]; 500 g ai/ha): 0
Plant response rating, Barnyardgrass (barnyardgrass [4]; [21]): 0
Plant response rating, Rice (rice [5]; [20]): 0
Plant response rating, Rice (rice [5]; [21]): 0
Plant response rating, Foxtail, Giant (giant foxtail [6]; [20]): 0
Foxtail, Giant plant response rating (giant foxtail [6]; 125 g ai/ha): 0
Foxtail, Giant plant response rating (giant foxtail [6]; 500 g ai/ha): 0
Plant response rating, Foxtail, Giant (giant foxtail [6]; [21]): 0
Barnyardgrass plant response rating (barnyardgrass [7]): 0
Morningglory plant response rating (morningglory [8]; [15]): 0
Plant response rating, Morningglory (morningglory [8]; [16]): 10
Morningglory plant response rating (morningglory [8]; [19]): 0
Morningglory plant response rating (morningglory [8]; [17]): 5
Wheat plant response rating (wheat): 0
Plant response rating, Velvetleaf (velvetleaf [9]; [20]): 0
Velvetleaf plant response rating (velvetleaf [9]; 125 g ai/ha): 0
Velvetleaf plant response rating (velvetleaf [9]; 500 g ai/ha): 0
Plant response rating, Velvetleaf (velvetleaf [9]; [21]): 0
Blackgrass plant response rating (blackgrass; 125 g ai/ha): 0
Blackgrass plant response rating (blackgrass; 500 g ai/ha): 0
Ducksalad plant response rating (ducksalad): 0
Barnyardgrass plant response rating (barnyardgrass [10]; [15]): 0
Plant response rating, Barnyardgrass (barnyardgrass [10]; [16]): 10
Barnyardgrass plant response rating (barnyardgrass [10]; [19]): 0
Barnyardgrass plant response rating (barnyardgrass [10]; [17]): 10
Plant response rating, Morningglory (morningglory [11]; [20]): 0
Morningglory plant response rating (morningglory [11]; 125 g ai/ha): 0
Morningglory plant response rating (morningglory [11]; 500 g ai/ha): 0
Plant response rating, Morningglory (morningglory [11]; [21]): 0
Plant response rating, Cocklebur (cocklebur; [20]): 0
Cocklebur plant response rating (cocklebur; 125 g ai/ha): 0
Cocklebur plant response rating (cocklebur; 500 g ai/ha): 0
Plant response rating, Cocklebur (cocklebur; [21]): 0
Plant response rating, Corn (corn; [20]): 0
Corn plant response rating (corn; 125 g ai/ha): 0
Corn plant response rating (corn; 500 g ai/ha): 0
Plant response rating, Corn (corn; [21]): 0
Sedge, Umbrella plant response rating [12]: 30
Rice plant response rating (rice [13]): 0
Plant response rating, Crabgrass, Large (large crabgrass [14]; [20]): 0
Crabgrass, Large plant response rating (large crabgrass [14]; 125 g ai/ha): 0
Crabgrass, Large plant response rating (large crabgrass [14]; 500 g ai/ha): 0
Plant response rating, Crabgrass, Large (large crabgrass [14]; [21]): 0
Plant response rating, Pigweed (pigweed; [20]): 0
Pigweed plant response rating (pigweed; 125 g ai/ha): 0
Pigweed plant response rating (pigweed; 500 g ai/ha): 0
Plant response rating, Pigweed (pigweed; [21]): 0
Oat, Wild plant response rating (wild oat; 125 g ai/ha): 0
Oat, Wild plant response rating (wild oat; 500 g ai/ha): 0
Plant response rating, Lambsquarters (lambsquarters; [20]): 0
Lambsquarters plant response rating (lambsquarters; 125 g ai/ha): 0
Lambsquarters plant response rating (lambsquarters; 500 g ai/ha): 0
Plant response rating, Lambsquarters (lambsquarters; [21]): 0
